Test results reported in patent US20220000117A1, “METHOD FOR CONTROLLING DISEASES IN SMALL GRAIN CEREALS, SEED OF SMALL GRAIN CEREALS, AND METHOD FOR SUPPRESSING LODGING DAMAGE IN SMALL GRAIN CEREALS” (KUMIAI CHEMICAL INDUSTRY CO., LTD., priority 2019, published 2022).

Key:
powdery mildew [1] = test: Test Example 1: control test of wheat powdery mildew, field, wheat variety Haruyutaka; assay type: in vivo, Blumeria graminis; settings: Foliage Treatment, flag leaves, 79 days after seeding
Description: Seed of wheat (variety: Haruyutaka) sterilized in advance with commercial Benlate T wettable powder 20 (“Benlate” is a registered trademark) was used. In Example 1, seed having a mass of 1 kg was mixed into 100 ml of suspension water containing 5 g of dichlobentiazox, air-dried, and then, stripe-sown in a field with a furrow width of 30 cm and a ratio of 163 kg/ha (417 seeds/m^2). In contrast, in Comparative Example 1, seed which had not treated with dichlobentiazox was sown in a field in the same manner, and a spray solution corresponding to that obtained by suspending 500 g of dichlobentiazox in 200 liters of water per 1 ha was sprayed on foliage of wheat three times, during an ear emergence period (63 days after seeding), a flowering period (70 days after seeding), and a flowering end period (77 days after seeding). Similarly, in place of 500 g of dichlobentiazox in Comparative Example 1, 250 g of azoxystrobin (commercial Amistar 20 flowable was used. “Amistar” is a registered trademark) was used in Comparative Example 2, and 125 g of propiconazole (commercial Tilt emulsifiable concentrate 25 was used, “Tilt” is a registered trademark) was used in Comparative Example 3. The presence or absence of disease occurrence and a lesion area ratio of powdery mildew in flag leaves of 30 stems were investigated 79 days after seeding according to the criteria in Table 1, and a disease leaf rate and the degree of disease occurrence were calculated by the following calculation formula (1).
(§1) Degree of Disease Occurrence=Σ(Index×Number of Leaves of Index)/(4×Number of Investigated Leaves)×100 (1)

septoria leaf blotch = test: Test Example 7: control test of septoria leaf blotch of wheat, field, wheat variety TRAPEZ; assay type: in vivo, Septoria tritici; settings: for Degree of Disease Occurrence: flag leaves, 219 days after seeding
Description: as §1
Seed of wheat (variety: TRAPEZ) was used. On seed having a mass of 1 kg, 20 ml of suspension water containing 0.5 g or 5 g of dichlobentiazox or isotianil was sprayed. In Examples 16, 17, and 18, the seed treated with the chemical was stripe-sown with a ratio of 100 kg/ha. In contrast, in Comparative Example 17, seed which had not treated with dichlobentiazox or isotianil was sown in a field in the same manner, and a spray solution corresponding to that obtained by suspending 750 g of chlomthalonil (commercial FUNGISTOP was used, “FUNGISTOP” is a registered trademark) in 200 liters of water per 1 ha was sprayed on foliage of wheat 154 days and 184 days after seeding. The severity of disease occurrence of septoria leaf blotch in flag leaves of 25 stems was investigated 219 days after seeding according to the criteria in Table 1, and the degree of disease occurrence was calculated by the above calculation formula (1).

powdery mildew [2] = test: Test Example 3: control test of wheat powdery mildew, cup in greenhouse, inoculated; assay type: in vivo, Blumeria graminis; design: key to Degree of Disease Occurrence: Σ(index×no. leaves of index)/(4×no. investigated leaves)×100; settings: for Degree of Disease Occurrence: 19 days after seeding
Description: as §1
(§2) Seed having a mass of 1 kg of wheat (variety: Norin No. 61) was mixed into 100 ml of suspension water containing 5 g or 0.5 g of dichlobentiazox or isotianil and air-dried, and then, 12 seeds were sown in a plastic cup having a diameter of 6 cm containing river sand and managed in a greenhouse. The number of emerged seeds was investigated nine days after seeding, and an emergence rate was calculated (Examples 6 to 9). In Comparative Examples 6 to 9, 20 ml of suspension water of an active ingredient, which had been adjusted to have a concentration shown in Table 4, was sprayed in a frame of 45 cm×45 cm in which a pot of wheat seedlings was placed (corresponding to 1000 L/ha) 14 days after seeding. On day 14 after seeding, conidiospores of powdery mildew were sifted over leaves of wheat seedlings and inoculated onto the leaves (after the sprayed liquid was dried in the case of Comparative Examples), a lesion area ratio of powdery mildew in a first leaf was investigated 19 days after seeding according to the criteria in Table 1, and the degree of disease occurrence was calculated by the above calculation formula (1).

[3] = tested on: wheat (variety: Norin No. 61); test: Test Example 2: emergence rate of treated wheat seed; assay type: in vivo; settings: 10 days after seeding
Description: (§3) Seed having a mass of 1 kg of wheat (variety: Norin No. 61) was mixed into 100 ml of suspension water containing 5 g or 0.5 g of dichlobentiazox or isotianil (commercial Routine flowable was used, “Routine” is a registered trademark) and air-dried, and then, 15 seeds were sown in a plastic pot of 9 cm×9 cm containing horticultural soil and managed in a greenhouse. The number of emerged seeds was investigated 10 days after seeding, and an emergence rate was calculated (Examples 2 to 5). On day 49 after seeding, conidiospores of powdery mildew were sifted over leaves of wheat seedlings and inoculated onto the leaves, a lesion area ratio of powdery mildew in a first leaf was investigated 59 days after seeding according to the criteria in Table 1, and the degree of disease occurrence was calculated by the above calculation formula (1).

powdery mildew [4] = test: Test Example 2: control test of wheat powdery mildew, pot in greenhouse, inoculated, wheat variety Norin No. 61; assay type: in vivo, Blumeria graminis; settings: for Degree of Disease Occurrence: inoculated day 49, first leaf, 59 days after seeding
Description: as §1, §3

powdery mildew [5] = test: Test Example 5: control test of wheat powdery mildew, field, wheat variety Haruyutaka; assay type: in vivo, Blumeria graminis; settings: for Degree of Disease Occurrence / Disease Leaf Rate (%): Seed Treatment 2.5 g/Seed 1 kg (250 g/ha), leaves just below flag leaves, 85 days after seeding
Description: as §1
Seed of wheat (variety: Haruyutaka) sterilized in advance with commercial Benlate T wettable powder 20 (“Benlate” is a registered trademark) was used. In Examples 12, 13, and 14, seed having a mass of 1 kg was mixed into 50 ml of suspension water containing 2.5 g or 1.25 g of dichlobentiazox or 50 ml of suspension water containing 2.5 g of isotianil, air-dried, and then, stripe-sown in a field with a furrow width of 30 cm and a ratio of 100 kg/ha (300 seeds/m^2). Moreover, in Comparative Example 14, seed having a mass of 1 kg was mixed into 50 ml of suspension water containing 2.5 g of tiadinil (commercial V-GET flowable was used, “V-GET” is a registered trademark), air-dried, and then, stripe-sown in a field with a furrow width of 30 cm and a ratio of 100 kg/ha (300 seeds/m^2). The presence or absence of disease occurrence and a lesion area ratio of powdery mildew in leaves just below hag leaves (next leaves) of 30 stems were investigated 85 days after seeding by according to the criteria in Table 1, and a disease leaf rate and the degree of disease occurrence were calculated by the above calculation formula(1).

[6] = tested on: wheat (variety: Norin No. 61); test: Test Example 3: emergence rate of wheat seed; assay type: in vivo
Description: as §2

[7] = tested on: wheat (variety: Haruyutaka); test: Test Example 6: evaluation test of shortening of wheat (culm length, seed yield), field; assay type: in vivo; settings: Propiconazole foliage spray 125 g/ha three times only, no seed treatment
[8] = Seed Treatment 0.5 g/Seed 1 kg (50 g/ha)
[9] = Seed Treatment 5 g/Seed 1 kg (500 g/ha)

Structure (SMILES): CO/C=C(/C(=O)OC)c1ccccc1Oc1cc(Oc2ccccc2C#N)ncn1 [Azoxystrobin, azoxystrobin, reference compound]
- Degree of Disease Occurrence (powdery mildew [1]; spray 250 g/ha three times): 17.6
- Disease Leaf Rate (%) (powdery mildew [1]; spray 250 g/ha three times): 90.0%

Structure (SMILES): N#Cc1c(Cl)c(Cl)c(Cl)c(C#N)c1Cl [Chlorothalonil, chlorothalonil, reference compound]
- Degree of Disease Occurrence (septoria leaf blotch; Foliage Treatment, spray 750 g/ha two times (154 and 184 days after seeding)): 3.1

Structure (SMILES): N#Cc1ccccc1NC(=O)c1snc(Cl)c1Cl [Compound (10), Isotianil]
- Degree of Disease Occurrence (powdery mildew [2]; Foliage Treatment, spray 50 ppm suspension water (50 g/ha) day 14, first leaf): 47.2
- Degree of Disease Occurrence (powdery mildew [2]; Foliage Treatment, spray 500 ppm suspension water (500 g/ha) day 14, first leaf): 27.8
- Degree of Disease Occurrence (powdery mildew [2]; Seed Treatment 0.5 g/Seed 1 kg (50 g/ha), inoculated day 14, first leaf): 23.5
- Degree of Disease Occurrence (powdery mildew [2]; Seed Treatment 5 g/Seed 1 kg (500 g/ha), inoculated day 14, first leaf): 4.4
- disease occurrence of powdery mildew, seed treatment compared with spraying on foliage during a growing period (powdery mildew [2]; seed treatment): suppressed lower
- Degree of Disease Occurrence (septoria leaf blotch; [8]): 2.1
- disease occurrence of septoria leaf blotch, seed treatment compared with foliage spraying of chlorothalonil (septoria leaf blotch; seed treatment): more suppressed
- Emergence Rate (%) [3, 8]: 96%
- Emergence Rate (%) [3, 9]: 100%
- Degree of Disease Occurrence (powdery mildew [4]; [8]): 7.6
- Degree of Disease Occurrence (powdery mildew [4]; [9]): 7.1
- disease occurrence under artificial inoculation of powdery mildew (powdery mildew [4]; seed treatment): the disease occurrence was suppressed
- Degree of Disease Occurrence (powdery mildew [5]): 1.0
- Disease Leaf Rate (%) (powdery mildew [5]): 4.4%
- disease occurrence of powdery mildew, seed treatment compared with seed treatment with tiadinil (powdery mildew [5]; seed treatment): suppresses the disease occurrence of powdery mildew lower
- Emergence Rate (%) ([6]; Foliage Treatment group, spray 50 ppm (50 g/ha) 14 days after seeding, emergence counted nine days after seeding): 97%
- Emergence Rate (%) ([6]; Foliage Treatment group, spray 500 ppm (500 g/ha) 14 days after seeding, emergence counted nine days after seeding): 100%
- Emergence Rate (%) ([6]; Seed Treatment 0.5 g/Seed 1 kg (50 g/ha), nine days after seeding): 100%
- Emergence Rate (%) ([6]; Seed Treatment 5 g/Seed 1 kg (500 g/ha), nine days after seeding): 83.3%

Structure (SMILES): CCCC1COC(Cn2cncn2)(c2ccc(Cl)cc2Cl)O1 (stereo not shown) [Propiconazole, propiconazole, reference compound]
- Culm Length (cm) ([7]; harvested 106 days after seeding): 82.5 cm
- Seed Yield ([7]; wheat in 3 m2, 106 days after seeding): 990 g
- Degree of Disease Occurrence (powdery mildew [1]; spray 125 g/ha three times): 4.4
- Disease Leaf Rate (%) (powdery mildew [1]; spray 125 g/ha three times): 32.2%

Structure (SMILES): Cc1ccc(NC(=O)c2snnc2C)cc1Cl [Tiadinil, tiadinil, reference compound]
- Degree of Disease Occurrence (powdery mildew [5]): 11.0
- Disease Leaf Rate (%) (powdery mildew [5]): 33.3%
